Source: US12344603B2 (Genentech, Inc., priority 2020, dated 2025)
pIC50: −log10 of the molar value. Where a name gives a salt, the structure may show the parent alone.

What follows are compounds tested against IRE1α (Homo sapiens (Human), UniProt O75460, D688N) (assay: IRE1α TR-FRET competition binding assay (IRE1α HTRF)). Conditions: TR-FRET competition binding to kinase domain of IRE1α.
Outline: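 Kinase domain (0.25 nM) pre-bound to 2 nM Eu anti-His antibody for 1 h at 4° C in HEPES pH 7.5/MgCl2/Brij 35/DTT/gamma globulin buffer, then mixed with compounds and 2 nM Alexa 647 ATP-competitive probe. 1 h at room temperature; probe displacement read as TR-FRET (Ex 347 nm, Em 665/615 nm).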

Chain of IRE1α (O75460 547-977 D688N): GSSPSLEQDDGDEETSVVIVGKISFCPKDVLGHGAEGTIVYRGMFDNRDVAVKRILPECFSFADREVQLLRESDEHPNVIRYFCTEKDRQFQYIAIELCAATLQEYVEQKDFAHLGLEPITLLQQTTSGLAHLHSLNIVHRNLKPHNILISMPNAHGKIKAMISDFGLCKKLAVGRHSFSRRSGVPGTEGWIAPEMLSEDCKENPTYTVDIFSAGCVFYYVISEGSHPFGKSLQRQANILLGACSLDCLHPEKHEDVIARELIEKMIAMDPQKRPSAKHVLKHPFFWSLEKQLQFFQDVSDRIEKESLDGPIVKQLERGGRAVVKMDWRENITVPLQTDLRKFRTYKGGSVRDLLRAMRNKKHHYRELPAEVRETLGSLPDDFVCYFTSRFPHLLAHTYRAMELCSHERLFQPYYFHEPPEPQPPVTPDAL

Structure (SMILES)	pIC50
CC(C)n1c(=O)c(-c2ccc(NS(=O)(=O)CCC(C)(F)F)c(F)c2)cc2cnc(N[C@H]3CC[C@H](N(C)C)CC3)nc21 [Example 229, N-(4-(2-(((1r,4r)-4-(Dimethylamino)cyclohexyl)amino)-8-isopropyl-7-oxo-7,8-dihydropyrido[2,3-d]pyrimidin-6-yl)-2-fluorophenyl)-3,3-difluorobutane-1-sulfonamide]	9.52
CC(C)Nc1ncc2cc(-c3cc(F)c(NS(=O)(=O)CCC(F)(F)F)c(F)c3F)c(=O)n(C(C)C)c2n1 [Compound 21, 3,3,3-Trifluoro-N-(2,3,6-trifluoro-4-(8-isopropyl-2-(isopropylamino)-7-oxo-7,8-dihydropyrido[2,3-d]pyrimidin-6-yl)phenyl)propane-1-sulfonamide]	7.80
CCCS(=O)(=O)Nc1ccc(-c2nc3cnc(N[C@@H]4CNC[C@H](CF)C4)nc3n(C(C)C)c2=O)cc1F [Compound 79, N-[2-Fluoro-4-[2-[[(3S,5R)-5-(fluoromethyl)-3-piperidyl]amino]-8-isopropyl-7-oxo-pteridin-6-yl]phenyl]propane-1-sulfonamide]	8.82
CCCS(=O)(=O)Nc1c(F)cc(-c2nc3cnc(N[C@H]4CC[C@H](N(C)C)CC4)nc3n(C(C)C)c2=O)cc1F [Example 242, N-[4-[2-[[4-(Dimethylamino)cyclohexyl]amino]-8-isopropyl-7-oxo-pteridin-6-yl]-2,6-difluoro-phenyl]propane-1-sulfonamide]	10.00
CCn1c(=O)c(-c2ccc(NS(=O)(=O)Cc3ccccc3)c(F)c2F)cc2cnc(N[C@H]3CCCNC3)nc21 [Compound 3, (S)—N-(4-(8-Ethyl-7-oxo-2-(piperidin-3-ylamino)-7,8-dihydropyrido[2,3-d]pyrimidin-6-yl)-2,3-difluorophenyl)-1-phenylmethanesulfonamide]	9.17
CCCS(=O)(=O)Nc1ccc(-c2cc3cnc(N[C@@H]4CNC[C@@H](F)C4)nc3n(CC)c2=O)c(F)c1F [Compound 13, N-(4-(8-Ethyl-2-(((3S,5S)-5-fluoropiperidin-3-yl)amino)-7-oxo-7,8-dihydropyrido[2,3-d]pyrimidin-6-yl)-2,3-difluorophenyl)propane-1-sulfonamide]	8.08
Cn1c(=O)c(-c2cccc3c(NS(=O)(=O)CCC(F)(F)F)c(F)ccc23)cc2cnc(N[C@H]3CCCNC3)nc21 [Compound 4, (S)-3,3,3-Trifluoro-N-(2-fluoro-5-(8-methyl-7-oxo-2-(piperidin-3-ylamino)-7,8-dihydropyrido[2,3-d]pyrimidin-6-yl)naphthalen-1-yl)propane-1-sulfonamide]	8.30
CC(C)n1c(=O)c(-c2ccc(NS(=O)(=O)C3CCC3)c(F)c2)nc2cnc(N[C@H]3CC[C@H](N(C)C)CC3)nc21 [Example 276, N-[4-[2-[[4-(Dimethylamino)cyclohexyl]amino]-8-isopropyl-7-oxo-pteridin-6-yl]-2-fluoro-phenyl]cyclobutanesulfonamide]	9.05
CC(C)n1c(=O)c(-c2cc(F)c(NC(=O)CC3CCC3)c(F)c2F)cc2cnc(N[C@H]3CC[C@H](N(C)C)CC3)nc21 [Compound 62, 2-Cyclobutyl-N-(4-(2-(((1r,4r)-4-(dimethylamino)cyclohexyl)amino)-8-isopropyl-7-oxo-7,8-dihydropyrido[2,3-d]pyrimidin-6-yl)-2,3,6-trifluorophenyl)acetamide]	8.66
CC(C)n1c(=O)c(-c2cc(F)c(NS(=O)(=O)Cc3ccc(F)cc3)c(F)c2)nc2cnc(N[C@H]3CC[C@H](N(C)C)CC3)nc21 [Example 245, N-[4-[2-[[4-(Dimethylamino)cyclohexyl]amino]-8-isopropyl-7-oxo-pteridin-6-yl]-2,6-difluoro-phenyl]-1-(4-fluorophenyl)methanesulfonamide]	10.00
CC(C)n1c(=O)c(-c2ccc(NS(=O)(=O)c3ccccc3Cl)nc2)cc2cnc(N[C@H]3CC[C@H](N(C)C)CC3)nc21 [Compound 105, 2-Chloro-N-(5-(2-(((1r,4r)-4-(dimethylamino)cyclohexyl)amino)-8-isopropyl-7-oxo-7,8-dihydropyrido[2,3-d]pyrimidin-6-yl)pyridin-2-yl)benzenesulfonamide]	9.80
CCn1c(=O)c(-c2cc(F)c(NS(=O)(=O)Cc3ccccn3)c(F)c2F)cc2cnc(N[C@@H]3CNC[C@@H](F)C3)nc21 [Compound 49, N-(4-(8-ethyl-2-(((3S,5S)-5-fluoropiperidin-3-yl)amino)-7-oxo-7,8-dihydropyrido[2,3-d]pyrimidin-6-yl)-2,3,6-trifluorophenyl)-1-(pyridin-2-yl)methanesulfonamide]	8.30
CC(C)n1c(=O)c(-c2ccc(NS(=O)(=O)Cc3ccc(F)cc3)c(F)c2)nc2cnc(N[C@H]3CC[C@H](N(C)C)CC3)nc21 [Compound 184, N-(4-(2-(((1r,4r)-4-(dimethylamino)cyclohexyl)amino)-8-isopropyl-7-oxo-7,8-dihydropteridin-6-yl)-2-fluorophenyl)-1-(4-fluorophenyl)methanesulfonamide]	9.60
CC(C)n1c(=O)c(-c2cc(F)c(NS(=O)(=O)Cc3ccn(CC(F)(F)F)n3)c(F)c2F)cc2cnc(N[C@@H]3CNC[C@@H](F)C3)nc21 [Compound 158, N-(2,3,6-Trifluoro-4-(2-(((3S,5S)-5-fluoropiperidin-3-yl)amino)-8-isopropyl-7-oxo-7,8-dihydropyrido[2,3-d]pyrimidin-6-yl)phenyl)-1-(1-(2,2,2-trifluoroethyl)-1H-pyrazol-3-yl)methanesulfonamide]	9.24
CC(C)n1c(=O)c(-c2ccc(NS(=O)(=O)CC3(C(C)(F)F)CC3)c(F)c2)nc2cnc(N[C@H]3CC[C@H](N(C)C)CC3)nc21 [Example 258, 1-[1-(1,1-Difluoroethyl)cyclopropyl]-N-[4-[2-[[4-(dimethylamino)cyclohexyl]amino]-8-isopropyl-7-oxo-pteridin-6-yl]-2-fluoro-phenyl]methanesulfonamide]	9.70
CC(C)n1c(=O)c(-c2ccc(NS(=O)(=O)CCC(F)(F)F)nc2)cc2cnc(N[C@H]3CC[C@H](N(C)C)[C@H](F)C3)nc21 [Example 224]	9.70
CC(C)n1c(=O)c(-c2cc(F)c(NS(=O)(=O)CC3CC(F)(F)C3)c(F)c2)nc2cnc(N[C@H]3CC[C@H](N(C)C)CC3)nc21 [Example 249, 1-(3,3-Difluorocyclobutyl)-N-[4-[2-[[4-(dimethylamino)cyclohexyl]amino]-8-isopropyl-7-oxo-pteridin-6-yl]-2,6-difluoro-phenyl]methanesulfonamide]	9.70
CC(C)n1c(=O)c(-c2ccc(NS(=O)(=O)CCC(F)(F)F)c(F)c2)cc2cnc(NC3CCC(N(C)C)C(F)C3)nc21 (single isomer, unassigned) [Compound 110B, N-(4-(2-((4-(Dimethylamino)-3-fluorocyclohexyl)amino)-8-isopropyl-7-oxo-7,8-dihydropyrido[2,3-d]pyrimidin-6-yl)-2-fluorophenyl)-3,3,3-trifluoropropane-1-sulfonamide]	9.15
CC(C)n1c(=O)c(-c2c(F)cc(NS(=O)(=O)Cc3ccc(F)cc3)cc2F)cc2cnc(N[C@H]3CC[C@H](N(C)C)CC3)nc21 [Compound 129, N-(4-(2-(((1r,4r)-4-(Dimethylamino)cyclohexyl)amino)-8-isopropyl-7-oxo-7,8-dihydropyrido[2,3-d]pyrimidin-6-yl)-3,5-difluorophenyl)-1-(4-fluorophenyl)methanesulfonamide hydrochloride]	10.10
COCCN(C)[C@H]1CC[C@H](Nc2ncc3cc(-c4ccc(NS(=O)(=O)CCC(F)(F)F)c(F)c4)c(=O)n(C(C)C)c3n2)CC1 [Compound 138, 3,3,3-Trifluoro-N-(2-fluoro-4-(8-isopropyl-2-(((1r,4r)-4-((2-methoxyethyl)(methyl)amino)cyclohexyl)amino)-7-oxo-7,8-dihydropyrido[2,3-d]pyrimidin-6-yl)phenyl)propane-1-sulfonamide]	9.72
CC(C)n1c(=O)c(-c2cc(F)c(NS(=O)(=O)CCC(F)(F)F)c(F)c2)cc2cnc(NC3CCC(N(C)C)C(F)C3)nc21 (single isomer, unassigned) [Compound 118A, N-(4-(2-((4-(Dimethylamino)-3-fluorocyclohexyl)amino)-8-isopropyl-7-oxo-7,8-dihydropyrido[2,3-d]pyrimidin-6-yl)-2,6-difluorophenyl)-3,3,3-trifluoropropane-1-sulfonamide]	9.14
Cc1nc(NS(=O)(=O)c2ccccc2C#N)ccc1-c1cc2cnc(N[C@H]3CC[C@H](N(C)C)CC3)nc2n(C(C)C)c1=O [Compound 136, 2-Cyano-N-(5-(2-(((1r,4r)-4-(dimethylamino)cyclohexyl)amino)-8-isopropyl-7-oxo-7,8-dihydropyrido[2,3-d]pyrimidin-6-yl)-6-methylpyridin-2-yl)benzenesulfonamide]	9.54
CCC(C)n1c(=O)c(-c2ccc(NS(=O)(=O)Cc3ccccc3F)c(F)c2)cc2cnc(N[C@@H]3CNC[C@@H](F)C3)nc21 (single isomer, unassigned) [Compound 202B, hydrochloride]	9.59
CC(C)n1c(=O)c(-c2ccc(NS(=O)(=O)CCC(F)(F)F)c(F)c2)cc2cnc(N[C@H]3CC[C@H](N(C)C4CC4)CC3)nc21 [Compound 207, N-(4-(2-(((1,4-trans)-4-(Cyclopropyl(methyl)amino)cyclohexyl)amino)-8-isopropyl-7-oxo-7,8-dihydropyrido[2,3-d]pyrimidin-6-yl)-2-fluorophenyl)-3,3,3-trifluoropropane-1-sulfonamide]	9.68
CC(C)n1c(=O)c(-c2cccc(NS(=O)(=O)Cc3ccccc3)c2F)cc2cnc(N[C@H]3CCCNC3)nc21 [Compound 16, (S)—N-(2-Fluoro-3-(8-isopropyl-7-oxo-2-(piperidin-3-ylamino)-7,8-dihydropyrido[2,3-d]pyrimidin-6-yl)phenyl)-1-phenylmethanesulfonamide]	8.24
